US11512053B2, “Arginine methyltransferase inhibitors and uses thereof” (priority 2013, dated 2022)
pIC50: −log10 of the molar value. Like-named read-outs stand apart in the source and are kept apart here.

Target: T1, human CARM1 (PRMT4) (Flag- and His-tagged) (Homo sapiens, UniProt Q86X55)
T1 construct: Flag-CARM1-His; made in house; host or cells: HEK 293F cells (BacMam baculovirus)
T1 sequence (Q86X55 1-585 isoform Q86X55-1): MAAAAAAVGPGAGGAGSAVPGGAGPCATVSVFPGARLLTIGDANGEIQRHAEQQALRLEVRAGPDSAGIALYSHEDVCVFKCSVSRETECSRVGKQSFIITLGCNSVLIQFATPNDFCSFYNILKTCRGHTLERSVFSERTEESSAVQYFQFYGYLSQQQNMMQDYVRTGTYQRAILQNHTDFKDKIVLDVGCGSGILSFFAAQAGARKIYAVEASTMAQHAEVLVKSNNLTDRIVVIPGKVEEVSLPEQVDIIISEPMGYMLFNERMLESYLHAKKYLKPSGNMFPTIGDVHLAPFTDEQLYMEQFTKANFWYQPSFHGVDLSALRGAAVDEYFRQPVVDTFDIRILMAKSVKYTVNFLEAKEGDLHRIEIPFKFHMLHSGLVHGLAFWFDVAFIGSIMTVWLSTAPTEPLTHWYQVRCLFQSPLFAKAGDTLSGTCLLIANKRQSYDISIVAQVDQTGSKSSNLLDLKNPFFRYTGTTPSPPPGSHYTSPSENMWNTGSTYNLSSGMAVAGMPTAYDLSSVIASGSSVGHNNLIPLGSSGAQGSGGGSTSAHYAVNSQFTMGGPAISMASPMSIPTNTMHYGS
Test: CARM1 Biochemical Assay (3H-SAM Flashplate, peptide substrate)
Excerpt: General Materials. S-adenosylmethionine (SAM), S-adenosylhomocysteine (SAH), bicine, Tween20, dimethylsulfoxide (DMSO), bovine skin gelatin (BSG), sodium butyrate and Tris(2-carboxyethyl)phosphine hydrochloride solution (TCEP) were purchased from Sigma-Aldrich at the highest level of purity possible. ^3H-SAM was purchase from American Radiolabeled Chemicals with a specific activity of 80 Ci/mmol. 384-well streptavidin Flashplates were purchased from PerkinElmer.
Substrates. Peptide representative of human histone H3 residues 16-30 was synthesized with an N-terminal linker-affinity tag motif and a C-terminal amide cap by 21st Century Biochemicals. The peptide was purified by high-performance liquid chromatography (HPLC) to greater than 95% purity and confirmed by liquid chromatography mass spectrometry (LC-MS). The sequence was Biot-Ahx-[…]-amide and contained a monomethylated arginine at position 26 (SEQ ID NO.:14).
Molecular Biology: Human CARM1 (PRMT4) (NM_199141.1) transcript clone was amplified from an HEK 293 cDNA library, incorporating a flanking 5′ sequence encoding a FLAG tag ([…]) (SEQ ID NO.:6) fused directly to Ala 2 of CARM1 and 3′ sequence encoding a hexa His sequence ([…]) (SEQ ID NO.:15) fused directly to Ser 608. The gene sequence encoding isoform1 containing a deletion of amino acids 539-561 was amplified subsequently and subcloned into pFastBacMam (Viva Biotech).
Protein Expression. Recombinant baculovirus were generated according to Bac-to-Bac kit instructions (Life Technologies). […] Infections were carried out at 37° C. for 48 hours, harvested by centrifugation, and stored at −80° C. for purification.
Protein Purification. […] Column was washed with 500 mM NaCl in buffer A and Flag-CARM1-His was eluted with 200 ug/ml FLAG peptide in buffer A. Pooled fractions were dialyzed in 20 mM Tris, 150 mM NaCl, 5% glycerol and 1 mM DTT, pH 7.8. The purity of recovered protein was 94.
General Procedure for CARM1 Enzyme Assays on Peptide Substrates. The assays were all performed in a buffer consisting of 20 mM Bicine (pH=7.6), 1 mM TCEP, 0.005% BSG, and 0.002% Tween 20, prepared on the day of use. Compounds in 100% DMSO (1 ul) were spotted into a polypropylene 384-well V-bottom plates (Greiner) using a Platemate Plus outfitted with a 384-channel head (Thermo Scientific). DMSO (1 ul) was added to Columns 11, 12, 23, 24, rows A-H for the maximum signal control and 1 ul of SAH, a known product and inhibitor of CARM1, was added to columns 11, 12, 23, 24, rows I-P for the minimum signal control. A cocktail (40 ul) containing the CARM1 enzyme was added by Multidrop Combi (Thermo-Fisher). The compounds were allowed to incubate with CARM1 for 30 min at room temperature, then a cocktail (10 ul) containing ^3H-SAM and peptide was added to initiate the reaction (final volume=51 ul). The final concentrations of the components were as follows: CARM1 was 0.25 nM, ^3H-SAM was 30 nM, peptide was 250 nM, SAH in the minimum signal control wells was 1 mM, and the DMSO concentration was 2%. The assays were stopped by the addition of non-radiolabeled SAM (10 ul) to a final concentration of 300 uM, which dilutes the ^3H-SAM to a level where its incorporation into the peptide substrate is no longer detectable. 50 ul of the reaction in the 384-well polypropylene plate was then transferred to a 384-well Flashplate and the biotinylated peptides were allowed to bind to the streptavidin surface for at least 1 hour before being washed once with 0.1% Tween20 in a Biotek ELx405 plate washer. The plates were then read in a PerkinElmer TopCount plate reader to measure the quantity of ^3H-labeled peptide bound to the Flashplate surface, measured as disintegrations per minute (dpm) or alternatively, referred to as counts per minute (cpm).
Where dpm=disintegrations per minute, cmpd=signal in assay well, and min and max are the respective minimum and maximum signal controls. […]

## CN(CCN)Cc1c[nH]nc1CCc1ccccc1 [Compound 9]
  pIC50: 5.52 to 6.00
Single experiment or average of multiple experiments
  pIC50: 5.52
